For one data set, the target named is T1, IRF3DBD-AR(1-547) (Homo sapiens, UniProt P10275).
T1 construct: IRF3-AR(1-547) is the fusion of IRF3 DBD with the AR NTD (1-547); expressed in transfected cells
T1 sequence (P10275 1-547): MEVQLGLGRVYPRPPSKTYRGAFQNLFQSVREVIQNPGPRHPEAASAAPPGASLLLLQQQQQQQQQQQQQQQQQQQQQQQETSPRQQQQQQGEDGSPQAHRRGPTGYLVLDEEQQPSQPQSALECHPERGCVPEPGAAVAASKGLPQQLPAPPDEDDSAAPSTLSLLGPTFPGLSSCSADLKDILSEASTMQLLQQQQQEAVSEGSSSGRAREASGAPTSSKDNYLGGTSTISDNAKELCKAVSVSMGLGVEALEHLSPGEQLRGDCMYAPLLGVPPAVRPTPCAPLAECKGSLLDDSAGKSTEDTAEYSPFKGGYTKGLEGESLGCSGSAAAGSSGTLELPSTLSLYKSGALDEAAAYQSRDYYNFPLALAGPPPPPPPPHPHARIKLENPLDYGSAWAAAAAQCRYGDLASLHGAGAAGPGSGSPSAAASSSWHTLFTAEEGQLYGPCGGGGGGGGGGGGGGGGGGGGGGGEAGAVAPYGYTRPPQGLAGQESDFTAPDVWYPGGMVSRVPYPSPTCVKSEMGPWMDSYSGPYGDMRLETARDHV
Nature of the data set: IRF3DBD-AR(1-547) ISRE-luc reporter assay. Particulars: 24 h; for inhibition of IRF3DBD-AR(1-547)-mediated ISRE-luc activation: HEK293 cells; for inhibition of IRF3-AR(1-547)-dependent ISRE-luc reporter activity: PC3 cells. Format: cell-based.

In data set [1] the target is T2, Progesterone receptor (PR) (Homo sapiens, UniProt P06401).
T2 construct: expressed in transfected cells; host or cells: PC3
T2 sequence (P06401 1-933): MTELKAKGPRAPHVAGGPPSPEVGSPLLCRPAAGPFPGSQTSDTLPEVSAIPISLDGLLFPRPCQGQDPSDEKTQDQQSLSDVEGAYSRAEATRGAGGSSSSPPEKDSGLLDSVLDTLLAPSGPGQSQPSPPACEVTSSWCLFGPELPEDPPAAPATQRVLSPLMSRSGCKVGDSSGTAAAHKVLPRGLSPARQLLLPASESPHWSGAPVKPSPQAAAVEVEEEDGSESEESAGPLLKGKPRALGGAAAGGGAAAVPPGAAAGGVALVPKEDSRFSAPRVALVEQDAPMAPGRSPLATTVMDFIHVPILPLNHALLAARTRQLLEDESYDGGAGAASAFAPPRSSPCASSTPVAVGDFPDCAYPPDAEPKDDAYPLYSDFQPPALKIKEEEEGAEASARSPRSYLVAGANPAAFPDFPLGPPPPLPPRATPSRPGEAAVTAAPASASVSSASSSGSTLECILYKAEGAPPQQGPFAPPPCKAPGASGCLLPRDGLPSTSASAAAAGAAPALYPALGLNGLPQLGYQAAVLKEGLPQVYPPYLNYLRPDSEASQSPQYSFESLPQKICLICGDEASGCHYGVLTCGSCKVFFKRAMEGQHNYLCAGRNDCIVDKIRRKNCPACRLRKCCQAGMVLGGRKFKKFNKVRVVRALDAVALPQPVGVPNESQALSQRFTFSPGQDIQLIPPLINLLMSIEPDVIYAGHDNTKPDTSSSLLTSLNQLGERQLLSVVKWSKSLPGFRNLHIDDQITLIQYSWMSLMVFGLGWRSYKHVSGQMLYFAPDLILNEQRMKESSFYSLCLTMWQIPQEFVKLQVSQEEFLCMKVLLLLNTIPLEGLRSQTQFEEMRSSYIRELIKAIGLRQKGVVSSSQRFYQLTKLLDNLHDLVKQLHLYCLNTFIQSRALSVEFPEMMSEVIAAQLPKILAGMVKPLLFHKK
Nature of the data set: PR MMTV-luc reporter assay in PC3 cells. Format: cell-based. Also noted: interference with transcriptional activity of PR: dose or concentration left out as unconfirmed. Conditions: for effect on PR transcriptional activation (MMTV-luc): 10 nM R5020, PC3 cells, 24 h. For orientation: Reporter assays use an easily measured gene product as a stand-in for the process of interest.

The subject of data set [2] is PSA expression in LNCaP cells. Briefly: Western blot of PSA expression in LNCaP cells. Format: cell-based. Conditions: 24 h; for suppression of PSA expression in LNCaP cells (FIG. 19C): whole medium. As to the method: FIG. 11: A) Compounds 562 and 746 suppressed DHT-induced AR activation in LNCaP cells which endogenously express the T877A mutant; B) Western blot analysis indicated compound 746 at 2.5 μM suppressed DHT-induced expression of the PSA in LNCaP cells. […] ENZ, enzalutamide; BIC, bicalutamide; EPI, EPI-001.
Experiments were in duplicate and repeated three times. […] LNCaP cells in whole medium were exposed to DMSO vehicle control or compounds for 24 h.
On the technique in general: A western blot detects proteins with antibodies after separation by electrophoresis.

Data set [3] has as its system endogenous AR-Vs in 22Rv1 cells. Briefly: PSA-luc reporter assay in androgen-starved 22Rv1 cells (endogenous LBD-truncated AR variants). Particulars: androgen-starved 3 days, 24 h exposure.
Protocol: NT, LNCaP cells were transiently transfected with pIRES vector, PSA-luc and pRL-TK. […] Cells were then transiently transfected with PSA-Luc and pRL-TK and exposed to DMSO or compounds for 24 h, in triplicate. NT, not transfected with PSA-luc.
The ARs were probed by N-terminal directed AR antibody (N20, Santa Cruz); B) The 22Rv1 cells were androgen-starved (in phenol red-free medium+10% CS-FBS) for 3 days to ensure the full-length AR expressed in 22Rv1 are not activated. The 22Rv1 cells were subsequently co-transfected with PSA-luc and pRL-TK plasmids. […] Cells in phenol red-free medium+10% CS-FBS were exposed to DMSO or compounds for 24 h and harvested for Western blot analysis.
The cells were androgen-starved for 3 days and transfected with PSA-Luc and pRL-TK plasmids. NT, cells were transfected with empty vector. Cells were exposed to vehicle control or compounds for 24 h.
The test system of another data set is 22Rv1 cells. Briefly: MTT assay (cytotoxicity), 22Rv1 cells. In kind it is cell-based. Conditions: 22Rv1 cells, 72 h, Table 4.2. The method in brief: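 72 h continuous drug exposure, RPMI 1640/10% FBS, MTT endpoint; DMSO vehicle control.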
Background: Tetrazolium dyes change colour on reduction, which living cells bring about.

“Also recorded” adds a separate entry of the source.

On to `O=C(Nc1cccc(C(F)(F)F)c1)Nc1ccc(NC(=O)c2ccccc2F)c(C(F)(F)F)c1` [Compound 746], for which, at IRF3DBD-AR(1-547), the “inhibition of IRF3DBD-AR(1-547)-mediated ISRE-luc activation” value is listed as “targeting the AR-NTD; also recorded: target the AR-NTD” and the “inhibition of IRF3-AR(1-547)-dependent ISRE-luc reporter activity” value is listed as “potently inhibit”. For the same compound, in data set [1], the “interference with transcriptional activity of PR” value (shortened to “interference”) was “do not interfere” and the “effect on PR transcriptional activation (MMTV-luc)” value (from here on “effect”) was “do not interfere; also recorded: selective towards the AR”. For the same compound, the “suppression of PSA expression in LNCaP cells (FIG. 11B)” value in data set [2] (10 nM DHT) was “suppressed”. In data set [2] (2.5 μM, 10 nM DHT), the “suppression of DHT-induced expression of the PSA in LNCaP cells” value is “suppressed”. Further, the “activity against constitutive activation of endogenous AR-Vs in 22Rv1 cells (PSA-luc)” value in data set [3] is listed as “remain active; also recorded: greater inhibitory activity than EPI-001”.

One may read the IC50 as the concentration at which inhibition is half-maximal. In the data set on 22Rv1 cells, `N#Cc1ccc(NC(=O)Nc2cccc(C(F)(F)F)c2)cc1Cl` [Compound 492] yielded an IC50 of 1.9 µM.

In the data set with 22Rv1 cells, `N#Cc1ccc(NC(=O)Nc2cccc(C(F)(F)F)c2)cc1C(F)(F)F` [Compound 467] yielded an IC50 of 1.7 µM. For the same compound, at IRF3DBD-AR(1-547), the “inhibition of IRF3DBD-AR(1-547)-mediated ISRE-luc activation” value was “suppressed”. Besides, the “suppression of PSA expression in LNCaP cells (FIG. 19C)” value in data set [2] is reported as “dose-dependently suppressed”. For the same compound, the “activity against constitutive activation of endogenous AR-Vs in 22Rv1 cells (PSA-luc)” value in data set [3] is “significantly suppressed; also recorded: active”.

With `O=C(N/C=C/c1cccc(C(F)(F)F)c1)Nc1ccncn1` [Compound 562], at IRF3DBD-AR(1-547), the “inhibition of IRF3DBD-AR(1-547)-mediated ISRE-luc activation” value is “targeting the AR-NTD; also recorded: target the AR-NTD” and the “inhibition of IRF3-AR(1-547)-dependent ISRE-luc reporter activity” value is listed as “potently inhibit”. Besides, in data set [1], the “interference” value is “do not interfere” and the “effect” value is listed as “do not interfere; also recorded: selective towards the AR”. Also, in data set [2] (10 nM DHT), the “suppression of PSA expression in LNCaP cells (FIG. 11B)” value was “suppressed”. Also, the “activity against constitutive activation of endogenous AR-Vs in 22Rv1 cells (PSA-luc)” value in data set [3] is recorded as “remain active; also recorded: greater inhibitory activity than EPI-001”.

For `O=C(Nc1ccc(Br)nc1)Nc1cc(C(F)(F)F)cc(C(F)(F)F)c1` [Compound 566], the “inhibition of IRF3DBD-AR(1-547)-mediated ISRE-luc activation” value on IRF3DBD-AR(1-547) is reported as “targeting the AR-NTD; also recorded: target the AR-NTD”. For the same compound, in data set [1], the “interference” value is listed as “do not interfere” and the “effect” value is on record as “do not interfere”. Further, the “activity against constitutive activation of endogenous AR-Vs in 22Rv1 cells (PSA-luc)” value in data set [3] was “active; also recorded: greater inhibitory activity than EPI-001”.

As to `O=C(Nc1cccc(C(F)(F)F)c1)Nc1ccc([N+](=O)[O-])c(C(F)(F)F)c1` [Compound 442], the IC50 with 22Rv1 cells came out at 1.5 µM. The “inhibition of IRF3DBD-AR(1-547)-mediated ISRE-luc activation” value at IRF3DBD-AR(1-547) was “suppressed”. For the same compound, the “suppression of PSA expression in LNCaP cells (FIG. 19C)” value in data set [2] was “dose-dependently suppressed”. For the same compound, in data set [3], the “activity against constitutive activation of endogenous AR-Vs in 22Rv1 cells (PSA-luc)” value is “significantly suppressed; also recorded: active”.

Source of the values: patent publication US20170273922A1, “UREA AND BIS-UREA BASED COMPOUNDS AND ANALOGUES THEREOF USEFUL IN THE TREATMENT OF ANDROGEN RECEPTOR MEDIATED DISEASES OR DISORDERS” (THE ROYAL INSTITUTION FOR THE ADVACEMENT OF LEARNING/MCGILL …, priority 2014, published 2017).
